Measurements published in ChEMBL document CHEMBL3885861, “Open TG-GATES”.

Organism: Rattus norvegicus
Test: Open TG-GATES - Regimen: Single
Format: toxicity, organism-based, Sprague-Dawley
Parameters: regimen Single, gender Male, age 6 weeks
Conditions: in vivo, po, route gavage; for AST / BUN / CRE / Ca / Cl / DBIL / GLC / IP / K / LDH / Na / PL / RALB / TBIL / TC / TG / TP / gamma-GTP / A/G / ALP / ALT: tissue Plasma; for APTT / Bas / Eos / Fbg / Hb / Ht / Lym / MCH / MCHC / MCV / Mono / Neu / PT / Plat / RBC / Ret / WBC: tissue Blood; for KIDNEY_L / KIDNEY_R / KIDNEY_TOTAL: tissue Kidney; for LIVER: tissue Liver
[1] = 100 mg/kg, 24 h, dose level High
[2] = 100 mg/kg, 24 h, dose level Low
[3] = 300 mg/kg, 3 h, dose level Middle
[4] = 300 mg/kg, 6 h, dose level Middle

O=C1CN(/N=C/c2ccc([N+](=O)[O-])o2)C(=O)N1 [NITROFURANTOIN]
AST (100 mg/kg, 9 h, dose level Low): 66 IU/L | BUN (100 mg/kg, 9 h, dose level Low): 14.8 mg/dL | CRE (100 mg/kg, 9 h, dose level Low): 0.4 mg/dL | Ca (100 mg/kg, 9 h, dose level Low): 11.2 mg/dL | Cl (100 mg/kg, 9 h, dose level Low): 105 meq/L | DBIL (100 mg/kg, 9 h, dose level Low): 0.01 mg/dL | GLC (100 mg/kg, 9 h, dose level Low): 187.2 mg/dL | IP (100 mg/kg, 9 h, dose level Low): 7.8 mg/dL | K (100 mg/kg, 9 h, dose level Low): 4.8 meq/L | LDH (100 mg/kg, 9 h, dose level Low): 62.8 IU/L | Na (100 mg/kg, 9 h, dose level Low): 138.2 meq/L | PL (100 mg/kg, 9 h, dose level Low): 137.8 mg/dL | RALB (100 mg/kg, 9 h, dose level Low): 3.8 g/dL | TBIL (100 mg/kg, 9 h, dose level Low): 0.03 mg/dL | TC (100 mg/kg, 9 h, dose level Low): 77.8 mg/dL | TG (100 mg/kg, 9 h, dose level Low): 91.2 mg/dL | TP (100 mg/kg, 9 h, dose level Low): 5.6 g/dL | gamma-GTP (100 mg/kg, 9 h, dose level Low): 1 IU/L | TERMINAL_BW [1]: 237.1 g | TERMINAL_BW [2]: 213.4 g | APTT [1]: 18.4 s | Bas [1]: 0% | Eos [1]: 1% | Fbg [1]: 214.8 mg/dL | Hb [1]: 13.5 g/dL | Ht [1]: 38.6% | Lym [1]: 79.6% | MCH [1]: 22.1 pg | MCHC [1]: 35.2% | MCV [1]: 62.9 fL | Mono [1]: 2.6% | Neu [1]: 15.2% | PT [1]: 12.3 s | Plat [1]: 116.3 x10_4/uL | RBC [1]: 614.4 x10_4/ul | Ret [1]: 6.9% | WBC [1]: 90.9 x10_2/uL | APTT [2]: 16.1 s | Eos [2]: 0.8% | Fbg [2]: 227 mg/dL | Hb [2]: 13.1 g/dL | Ht [2]: 40% | Lym [2]: 74.8% | MCH [2]: 20.8 pg | MCHC [2]: 32.7% | MCV [2]: 63.7 fL | Mono [2]: 10.2% | Neu [2]: 14.2% | PT [2]: 12 s | Plat [2]: 129.7 x10_4/uL | RBC [2]: 628.4 x10_4/ul | Ret [2]: 5.8% | WBC [2]: 76.3 x10_2/uL | KIDNEY_L [1]: 1.1 g | KIDNEY_R [1]: 1.1 g | KIDNEY_TOTAL [1]: 2.1 g | KIDNEY_L [2]: 1 g | KIDNEY_R [2]: 1 g | LIVER [1]: 12.4 g | LIVER [2]: 10.4 g | A/G [1]: 1.6 | ALP [1]: 970.4 IU/L | ALT [1]: 39.2 IU/L | AST [1]: 63.4 IU/L | BUN [1]: 15.8 mg/dL | CRE [1]: 0.4 mg/dL | Ca [1]: 10.8 mg/dL | Cl [1]: 102.4 meq/L | DBIL [1]: 0.1 mg/dL | GLC [1]: 219.8 mg/dL | IP [1]: 7.3 mg/dL | K [1]: 4.3 meq/L | LDH [1]: 196.4 IU/L | Na [1]: 139.6 meq/L | PL [1]: 159.2 mg/dL | RALB [1]: 3.3 g/dL | TBIL [1]: 0.2 mg/dL | TC [1]: 79.2 mg/dL | TG [1]: 112.4 mg/dL | TP [1]: 5.4 g/dL | gamma-GTP [1]: 0.6 IU/L | A/G [2]: 2.2 | ALP [2]: 1379.2 IU/L | ALT [2]: 32.6 IU/L | AST [2]: 62.6 IU/L | BUN [2]: 15.4 mg/dL | Ca [2]: 11.1 mg/dL | Cl [2]: 105.4 meq/L | DBIL [2]: 0.01 mg/dL | GLC [2]: 194.2 mg/dL | IP [2]: 9.1 mg/dL | K [2]: 4.7 meq/L | LDH [2]: 73.4 IU/L | Na [2]: 141 meq/L | PL [2]: 150.8 mg/dL | RALB [2]: 3.8 g/dL | TBIL [2]: 0.028 mg/dL | TC [2]: 85.8 mg/dL | TG [2]: 118.6 mg/dL | TP [2]: 5.6 g/dL | gamma-GTP [2]: 0 IU/L | TERMINAL_BW [3]: 206.1 g | APTT [3]: 16.4 s | Bas [3]: 0% | Eos [3]: 1% | Fbg [3]: 227.6 mg/dL | Hb [3]: 13.2 g/dL | Ht [3]: 40.2% | Lym [3]: 72.2% | MCH [3]: 21.2 pg | MCHC [3]: 32.9% | MCV [3]: 64.5 fL | Mono [3]: 5% | Neu [3]: 21.8% | PT [3]: 11.9 s | Plat [3]: 123.8 x10_4/uL | RBC [3]: 623.2 x10_4/ul | Ret [3]: 7.6% | WBC [3]: 84.5 x10_2/uL | KIDNEY_L [3]: 0.9 g | KIDNEY_R [3]: 0.9 g | KIDNEY_TOTAL [3]: 1.8 g | LIVER [3]: 8.5 g | A/G [3]: 2.2 | ALP [3]: 1192.4 IU/L | ALT [3]: 38 IU/L | AST [3]: 65 IU/L | BUN [3]: 12.4 mg/dL | CRE [3]: 0.4 mg/dL | Ca [3]: 11.5 mg/dL | Cl [3]: 103 meq/L | DBIL [3]: 0.004 mg/dL | GLC [3]: 185.2 mg/dL | IP [3]: 10.1 mg/dL | K [3]: 4.2 meq/L | LDH [3]: 108.2 IU/L | Na [3]: 138.6 meq/L | PL [3]: 131.6 mg/dL | RALB [3]: 4 g/dL | TBIL [3]: 0.03 mg/dL | TC [3]: 86.4 mg/dL | TG [3]: 37.2 mg/dL | TP [3]: 5.8 g/dL | gamma-GTP [3]: 1 IU/L | TERMINAL_BW [4]: 204.8 g | APTT [4]: 16.7 s | Bas [4]: 0% | Eos [4]: 1.4%
